Reference: patent US20150335609A1, “COMBINATIONS OF HISTONE DEACETYLASE INHIBITOR AND PAZOPANIB AND USES THEREOF” (Pharmacyclics, Inc., priority 2012, published 2015)
Like-named read-outs stand apart in the source and are kept apart here.

Columns and labels:
[1] = Clinical pharmacokinetics of abexinostat, IV and oral dosing; settings: human, in vivo; for bioavailability: humans; for AUC(0-inf): humans with cancer, solution form, read-out: Systemic exposure measured as AUC0-∞
Description: In clinical trials involving humans with cancer, abexinostat in solution form was administered at 2 mg/kg as a single oral dose and as multiple 2-hour IV infusion doses.

[2] = Pharmacokinetics in laboratory animals, fasted state versus fed state; format: in vivo
[3] = Site of absorption of abexinostat
[4] = tested on: RAD51; test: Pre-clinical models, expression of DNA repair genes
Source text: Following chemotherapy and/or radiation treatment, some patient's tumors may turn on certain genes as a strategy by the tumor to adapt to the therapy and become resistant to cell death. One example of a genetic change that occurs in many cancers is the activation of the DNA repair gene RAD51. In response to treatment with DNA-damaging chemotherapy or radiation, tumors will often turn on DNA repair genes (including RAD51) as an adaptive strategy to help the tumor repair the DNA damage done by these agents.

[5] = tested on: tumor cell lines; test: In vitro activity against tumor cell lines; format: cell-based
[6] = tested on: lung, colon, prostate, pancreatic and brain tumors; test: Mouse tumor models; format: in vivo
[7] = tested on: primary human tumors; test: Ex vivo activity in primary human tumors; format: cell-based; settings: tumors from patients
[8] = Incidence of thrombocytopenia by dosing frequency; format: in vivo, human; settings: twice a day dosing compared to three times a day dosing
Description: In some embodiments, abexinostat (or a salt thereof; e.g., abexinostat HCl) is administered once per day during a cycle of abexinostat (or a salt thereof; e.g., abexinostat HCl). In some embodiments, abexinostat (or a salt thereof; e.g., abexinostat HCl) is administered twice per day during a cycle of abexinostat (or a salt thereof; e.g., abexinostat HCl). In some embodiments, abexinostat (or a salt thereof; e.g., abexinostat HCl) is administered three times per day during a cycle of abexinostat (or a salt thereof; e.g., abexinostat HCl).
In certain instances, thrombocytopenia is a side effect observed in humans that receive treatment with HDAC inhibitor compounds. Grade 4 thrombocytopenia typically includes instances when the human has a platelet count less than 25,000 per […]. Thrombocytopenia may be ameliorated or avoided by lowering the daily dose of abexinostat. In some embodiment, a method disclosed herein further comprises an abexinostat (or a salt thereof; e.g., abexinostat HCl) drug holiday following an abexinostat (or a salt thereof; e.g., abexinostat HCl) cycle.

bioavailability ([1]; 2 mg/kg, administered as immediate release capsules or an oral solution): ~27% | AUC(0-inf) ([1]; 2 mg/kg, multiple 2-hour IV infusion doses): 5.9 µM·h | AUC(0-inf) ([1]; 2 mg/kg, single oral dose): 1.45 µM·h | bioavailability ([1]; from AUC0-∞ of oral versus IV dosing at 2 mg/kg): ~27%
Compound: CN(C)Cc1c(C(=O)NCCOc2ccc(C(=O)NO)cc2)oc2ccccc12 [abexinostat, N-hydroxy-4-{2-[3-(N,N-dimethylaminomethyl)benzofuran-2-ylcarbonylamino]ethoxy}-benzamide]
pharmacokinetics, fasted state versus fed state [2]: difference in pharmacokinetics was observed | site of absorption [3]: preferentially absorbed in the intestines | effect on RAD51 (and other DNA repair genes) [4]: able to turn off RAD51 | activity against tumor cell lines [5]: active against many tumor cell lines | efficacy in mouse tumor models [6]: efficacious in mouse models of lung, colon, prostate, pancreatic and brain tumors | activity in primary human tumors [7]: active in primary human tumors from patients with colon, ovarian, lung and many hematological cancers | incidences of thrombocytopenia [8]: reduces the incidences of thrombocytopenia
